How the values were obtained:
Italian ryegrass = experiment: Test C pre-/postemergence test; assay type: in vivo, Lolium multiflorum
Method in brief: (§1)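 Test chemicals were formulated with surfactant in a non-phytotoxic solvent and sprayed both on freshly planted seeds (preemergence) and on 1- to 4-leaf plants of 2–18 cm (postemergence). Flooded-paddy pots received compound directly into 3 cm of standing water, maintained for the test.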

kochia = experiment: Test C pre-/postemergence test; assay type: in vivo, Kochia scoparia
Method in brief: as §1

rice = experiment: Test C flooded paddy test; assay type: in vivo, Oryza sativa; settings: Flood
Method in brief: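 Compound was added to standing water 3 cm above soil, flood maintained, and plants held in a greenhouse before visual scoring against controls at 13 to 15 days.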

giant foxtail = experiment: Test C pre-/postemergence test; assay type: in vivo, Setaria faberii
Method in brief: as §1

[1] = test system: common (oilseed) sunflower; experiment: Test C pre-/postemergence test; assay type: in vivo, Helianthus annuus
Method in brief: as §1

corn [2] = experiment: Test A pre-/postemergence greenhouse test; assay type: in vivo, Zea mays; settings: for Plant response rating, Corn: 0 to 100 scale where 0 is no effect and 100 is complete control; for Corn plant response rating: 0 to 100 scale
Method in brief: (§2)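 Herbicidal effect is a visual injury score given about ten days post-treatment by comparison with untreated controls. Preemergence plots received a directed spray onto sown loam–sand soil; postemergence plants, at the one- to two-leaf stage and 2–10 cm tall, were sprayed at the same time.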

eastern black nightshade = experiment: Test C pre-/postemergence test; assay type: in vivo, Solanum ptycanthum
Method in brief: as §1

redroot pigweed = experiment: Test A pre-/postemergence greenhouse test; assay type: in vivo, Amaranthus retroflexus; settings: for Plant response rating, Pigweed: 0 to 100 scale where 0 is no effect and 100 is complete control; for Pigweed plant response rating: 0 to 100 scale
Method in brief: as §2

morningglory [3] = experiment: Test C pre-/postemergence test; assay type: in vivo, Ipomoea coccinea
Method in brief: as §1

yellow nutsedge = experiment: Test C pre-/postemergence test; assay type: in vivo, Cyperus esculentus
Method in brief: as §1

morningglory [4] = experiment: Test A pre-/postemergence greenhouse test; assay type: in vivo, Ipomoea spp.; settings: for Plant response rating, Morningglory: 0 to 100 scale where 0 is no effect and 100 is complete control; for Morningglory plant response rating: 0 to 100 scale
Method in brief: as §2

bermudagrass = experiment: Test C pre-/postemergence test; assay type: in vivo, Cynodon dactylon
Method in brief: as §1

corn [5] = experiment: Test C pre-/postemergence test; assay type: in vivo, Zea mays
Method in brief: as §1

johnsongrass = experiment: Test C pre-/postemergence test; assay type: in vivo, Sorghum halepense
Method in brief: as §1

wild oat = experiment: Test C pre-/postemergence test; assay type: in vivo, Avena fatua
Method in brief: as §1

cocklebur = experiment: Test C pre-/postemergence test; assay type: in vivo, Xanthium strumarium
Method in brief: as §1

wheat = experiment: Test C pre-/postemergence test; assay type: in vivo, Triticum aestivum
Method in brief: as §1

[6] = 62 g ai/ha, Preemergence, scale 0 to 100
[7] = 125 g ai/ha, preemergence, scale 0 (no effect) to 100 (complete control)
[8] = Postemergence, 125 g ai/ha, scale 0 to 100, 0 no effect, 100 complete control
[9] = Postemergence, 250 g ai/ha, scale 0 to 100, 0 no effect, 100 complete control
[10] = Preemergence, 31 g ai/ha, scale 0 to 100 (0 no effect, 100 complete control)
[11] = preemergence, 250 g ai/ha, scale 0 (no effect) to 100 (complete control)
[12] = Postemergence, 62 g ai/ha, scale 0 to 100, 0 no effect, 100 complete control
[13] = Postemergence, 500 g ai/ha, 0 is no effect, 100 is complete control
[14] = Preemergence, 125 g ai/ha, 0 no effect, 100 complete control

SMILES: Cn1nc(C(F)(F)F)c(C[S+]([O-])c2ccc(F)c[n+]2[O-])c1OC(F)F (centres unmarked) [Compound 58]
- Ryegrass, Italian plant response rating (Italian ryegrass; [6]): 70
- Ryegrass, Italian plant response rating (Italian ryegrass; [7]): 98
- Plant response rating (0 to 100), Ryegrass, Italian (Italian ryegrass; Postemergence, 31 g ai/ha): 0
- Plant response rating (0 to 100), Ryegrass, Italian (Italian ryegrass; Postemergence, 62 g ai/ha): 40
- Plant response rating, Ryegrass, Italian (Italian ryegrass; [8]): 70
- Plant response rating, Ryegrass, Italian (Italian ryegrass; [9]): 90
- Plant response rating, Ryegrass, Italian (Italian ryegrass; [10]): 40
- Ryegrass, Italian plant response rating (Italian ryegrass; [11]): 100
- Kochia plant response rating (kochia; [6]): 50
- Kochia plant response rating (kochia; [7]): 100
- Plant response rating (0 to 100), Kochia (kochia; Postemergence, 31 g ai/ha): 0
- Plant response rating, Kochia (kochia; [12]): 0
- Plant response rating, Kochia (kochia; [8]): 0
- Plant response rating, Kochia (kochia; [9]): 50
- Plant response rating, Kochia (kochia; [10]): 0
- Kochia plant response rating (kochia; [11]): 100
- Plant response rating, Rice (rice; 62 g ai/ha, scale 0 to 100 (0 no effect, 100 complete control)): 40
- Plant response rating, Rice (rice; 250 g ai/ha, scale 0 to 100, 0 no effect, 100 complete control, 13 to 15 days): 65
- Foxtail, Giant plant response rating (giant foxtail; [6]): 100
- Foxtail, Giant plant response rating (giant foxtail; [7]): 100
- Plant response rating (0 to 100), Foxtail, Giant (giant foxtail; Postemergence, 31 g ai/ha): 0
- Plant response rating, Foxtail, Giant (giant foxtail; [12]): 10
- Plant response rating, Foxtail, Giant (giant foxtail; [8]): 40
- Plant response rating, Foxtail, Giant (giant foxtail; [9]): 60
- Plant response rating, Foxtail, Giant (giant foxtail; [10]): 40
- Foxtail, Giant plant response rating (giant foxtail; [11]): 100
- Sunflower plant response rating [1, 6]: 35
- Sunflower plant response rating [1, 7]: 35
- Plant response rating, Sunflower [1, 10]: 10
- Sunflower plant response rating [1, 11]: 85
- Plant response rating, Corn (corn [2]; Postemergence, 125 g ai/ha): 50
- Corn plant response rating (corn [2]; [13]): 70
- Corn plant response rating (corn [2]; [14]): 40
- Plant response rating, Corn (corn [2]; Preemergence, 500 g ai/ha): 90
- Nightshade plant response rating (eastern black nightshade; [6]): 100
- Nightshade plant response rating (eastern black nightshade; [7]): 100
- Plant response rating, Nightshade (eastern black nightshade; [10]): 100
- Nightshade plant response rating (eastern black nightshade; [11]): 100
- Plant response rating, Pigweed (redroot pigweed; Postemergence, 125 g ai/ha): 70
- Pigweed plant response rating (redroot pigweed; [13]): 90
- Pigweed plant response rating (redroot pigweed; [14]): 80
- Plant response rating, Pigweed (redroot pigweed; Preemergence, 500 g ai/ha): 100
- Morningglory plant response rating (morningglory [3]; [6]): 98
- Morningglory plant response rating (morningglory [3]; [7]): 98
- Plant response rating (0 to 100), Morningglory (morningglory [3]; Postemergence, 31 g ai/ha): 0
- Plant response rating, Morningglory (morningglory [3]; [12]): 0
- Plant response rating, Morningglory (morningglory [3]; [8]): 5
- Plant response rating, Morningglory (morningglory [3]; [9]): 5
- Plant response rating, Morningglory (morningglory [3]; [10]): 80
- Morningglory plant response rating (morningglory [3]; [11]): 100
- Nutsedge, Yellow plant response rating (yellow nutsedge; [6]): 40
- Nutsedge, Yellow plant response rating (yellow nutsedge; [7]): 70
- Plant response rating (0 to 100), Nutsedge, Yellow (yellow nutsedge; Postemergence, 31 g ai/ha): 0
- Plant response rating, Nutsedge, Yellow (yellow nutsedge; [12]): 0
- Plant response rating, Nutsedge, Yellow (yellow nutsedge; [8]): 0
- Plant response rating, Nutsedge, Yellow (yellow nutsedge; [9]): 50
- Plant response rating, Nutsedge, Yellow (yellow nutsedge; [10]): 0
- Nutsedge, Yellow plant response rating (yellow nutsedge; [11]): 98
- Plant response rating, Morningglory (morningglory [4]; Postemergence, 125 g ai/ha): 70
- Morningglory plant response rating (morningglory [4]; [13]): 90
- Morningglory plant response rating (morningglory [4]; [14]): 60
- Plant response rating, Morningglory (morningglory [4]; Preemergence, 500 g ai/ha): 100
- Bermudagrass plant response rating (bermudagrass; 62 g ai/ha, Preemergence, scale 0 to 100 (0 no effect, 100 complete control)): 100
- Bermudagrass plant response rating (bermudagrass; [7]): 100
- Plant response rating (0 to 100), Bermudagrass (bermudagrass; Postemergence, 31 g ai/ha): 0
- Plant response rating, Bermudagrass (bermudagrass; [12]): 0
- Plant response rating, Bermudagrass (bermudagrass; [8]): 20
- Plant response rating, Bermudagrass (bermudagrass; [9]): 40
- Plant response rating, Bermudagrass (bermudagrass; [10]): 100
- Bermudagrass plant response rating (bermudagrass; [11]): 100
- Corn plant response rating (corn [5]; [6]): 100
- Corn plant response rating (corn [5]; [7]): 100
- Plant response rating (0 to 100), Corn (corn [5]; Postemergence, 31 g ai/ha): 0
- Plant response rating, Corn (corn [5]; [12]): 0
- Plant response rating, Corn (corn [5]; [8]): 0
- Plant response rating, Corn (corn [5]; [9]): 0
- Plant response rating, Corn (corn [5]; [10]): 75
- Corn plant response rating (corn [5]; [11]): 100
- Johnsongrass plant response rating (johnsongrass; [6]): 95
- Johnsongrass plant response rating (johnsongrass; [7]): 100
- Plant response rating (0 to 100), Johnsongrass (johnsongrass; Postemergence, 31 g ai/ha): 0
- Plant response rating, Johnsongrass (johnsongrass; [12]): 0
- Plant response rating, Johnsongrass (johnsongrass; [8]): 10
- Plant response rating, Johnsongrass (johnsongrass; [9]): 60
- Plant response rating, Johnsongrass (johnsongrass; [10]): 85
- Johnsongrass plant response rating (johnsongrass; [11]): 100
- Oat, Wild plant response rating (wild oat; [6]): 45
- Oat, Wild plant response rating (wild oat; [7]): 80
- Plant response rating (0 to 100), Oat, Wild (wild oat; Postemergence, 31 g ai/ha): 0
- Plant response rating, Oat, Wild (wild oat; [12]): 0
- Plant response rating, Oat, Wild (wild oat; [8]): 0
- Plant response rating, Oat, Wild (wild oat; [9]): 5
- Plant response rating, Oat, Wild (wild oat; [10]): 20
- Oat, Wild plant response rating (wild oat; [11]): 80
- Cocklebur plant response rating (cocklebur; [6]): 0
- Cocklebur plant response rating (cocklebur; [7]): 0
- Plant response rating (0 to 100), Cocklebur (cocklebur; Postemergence, 31 g ai/ha): 0
- Plant response rating, Cocklebur (cocklebur; [12]): 0
- Plant response rating, Cocklebur (cocklebur; [8]): 0
- Plant response rating, Cocklebur (cocklebur; [9]): 0
- Plant response rating, Cocklebur (cocklebur; [10]): 0
- Cocklebur plant response rating (cocklebur; [11]): 40
- Wheat plant response rating (wheat; [6]): 60
- Wheat plant response rating (wheat; [7]): 85
- Plant response rating (0 to 100), Wheat (wheat; Postemergence, 31 g ai/ha): 0
- Plant response rating (0 to 100), Wheat (wheat; Postemergence, 62 g ai/ha): 0
- Plant response rating, Wheat (wheat; [8]): 20
- Plant response rating, Wheat (wheat; [9]): 60
- Plant response rating, Wheat (wheat; [10]): 10
- Wheat plant response rating (wheat; [11]): 90

— patent US20100298141A1, “SUBSTITUTED PYRIDINE N-OXIDE HERBICIDES” (E. I. DU PONT DE NEMOURS AND COMPANY, priority 2007, published 2010)
